In ChEMBL document CHEMBL5346923, “Novel pyridinium cationic pleuromutilin analogues overcoming bacterial multidrug resistance” (Eur J Med Chem, 2023):

Assays:
[1] = tested on: Staphylococcus aureus; experiment: Antibacterial activity against methicillin-resistant Staphylococcus aureus infected in rabbit RBC assessed as reduction in alpha-heamolysin at 0.5 times of MIC by absorbance based analysis; format: functional, Erythrocyte; design: scale not given: the % may be the effect or the level left
[2] = tested on: Staphylococcus aureus; experiment: Antibacterial activity against methicillin-resistant Staphylococcus aureus infected in rabbit RBC assessed as reduction in alpha-heamolysin at 0.25 times of MIC by absorbance based analysis; format: functional, Erythrocyte; design: scale not given: the % may be the effect or the level left
[3] = tested on: Staphylococcus aureus; experiment: Antibacterial activity against methicillin-resistant Staphylococcus aureus infected in rabbit RBC assessed as reduction in alpha-heamolysin by absorbance based analysis; format: functional, organism-based; conditions: Erythrocyte
[4] = tested on: Staphylococcus aureus; experiment: Antibacterial activity against methicillin-resistant Staphylococcus aureus infected in rabbit RBC assessed as reduction in alpha-heamolysin at 1 times of MIC by absorbance based analysis; format: functional, Erythrocyte; design: scale not given: the % may be the effect or the level left

C=C[C@]1(C)C[C@@H](OC(=O)CSc2cc[n+](CCCCCCC)cc2)[C@]2(C)[C@H](C)CC[C@]3(CCC(=O)[C@H]32)[C@@H](C)[C@@H]1O.[I-]
Activity [1]: 34% | Activity [2]: 25% | Activity [3]: Dose-Dependent Effect | Activity [4]: 93%
